Test results published in US20060069132A1, “Azolecarboxamide herbicides” (priority 2004, published 2006).

Key:
[1] = system: Surinam grass; test: Test C pre-/postemergence herbicide test; format: in vivo, Urochloa decumbens; settings: preemergence; for Plant response rating (0 = no effect, 100 = complete control), Surinam Grass: 125 g ai/ha
In short: (§1)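 Preemergence: seeds planted and treated with compound in non-phytotoxic solvent with surfactant; postemergence: plants at 2 to 18 cm (1- to 4-leaf stage) sprayed likewise. Kept in greenhouse 12 to 14 days, then visually rated against controls, 0 (no effect) to 100 (complete control).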

[2] = system: soybean; test: Test C pre-/postemergence herbicide test; format: in vivo, Glycine max; settings: preemergence; for Plant response rating (0 = no effect, 100 = complete control), Soybean: 125 g ai/ha
In short: as §1

[3] = system: pigweed; test: Test C pre-/postemergence herbicide test; format: in vivo, Amaranthus retroflexus; settings: preemergence; for Plant response rating (0 = no effect, 100 = complete control), Pigweed: 125 g ai/ha
In short: as §1

[4] = system: velvetleaf; test: Test C pre-/postemergence herbicide test; format: in vivo, Abutilon theophrasti; settings: preemergence; for Plant response rating (0 = no effect, 100 = complete control), Velvetleaf: 125 g ai/ha
In short: as §1

[5] = system: yellow nutsedge; test: Test C pre-/postemergence herbicide test; format: in vivo, Cyperus esculentus; settings: preemergence; for Plant response rating (0 = no effect, 100 = complete control), Nutsedge, Yellow: 125 g ai/ha
In short: as §1

[6] = system: corn; test: Test C pre-/postemergence herbicide test; format: in vivo, Zea mays; settings: preemergence; for Plant response rating (0 = no effect, 100 = complete control), Corn: 125 g ai/ha
In short: as §1

[7] = system: large crabgrass; test: Test C pre-/postemergence herbicide test; format: in vivo, Digitaria sanguinalis; settings: preemergence; for Plant response rating (0 = no effect, 100 = complete control), Crabgrass, Large: 125 g ai/ha
In short: as §1

[8] = system: wild oat; test: Test B postemergence herbicide test; format: in vivo, Avena fatua
In short: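 Postemergence plants were sprayed with formulated test chemicals at 2 to 18 cm height (1- to 4-leaf stage); paddy species were grown to the 2-leaf stage. After 13 to 15 days in a greenhouse, injury was rated visually against untreated controls on a 0–100 scale (0 = no effect, 100 = complete control).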

[9] = system: corn; test: Test B pre-/postemergence herbicide test; format: in vivo, Zea mays; settings: for Plant response rating (0 to 100 scale), Corn: 0 is no effect, 100 is complete control, preemergence
In short: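 Response was scored visually 13 to 15 days after treatment against untreated greenhouse controls, 0 meaning no effect and 100 complete control. Formulations (solvent mixture plus surfactant) went onto soil after planting, onto foliage of 1- to 4-leaf plants, and onto 2-leaf plants in a flooded paddy set including rice and barnyardgrass.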

[10] = system: johnsongrass; test: Test C pre-/postemergence herbicide test; format: in vivo, Sorghum halepense; settings: preemergence; for Plant response rating (0 = no effect, 100 = complete control), Johnsongrass: 125 g ai/ha
In short: as §1

[11] = 500 g ai/ha, scale 0 to 100 (0 no effect, 100 complete control), visual, 12 to 14 days
[12] = 125 g ai/ha, visual rating, scale 0 (no effect) to 100 (complete control), postemergence
[13] = Postemergence, 500 g ai/ha, scale 0 (no effect) to 100 (complete control)
[14] = postemergence, 125 g ai/ha, scale 0 to 100

| Compound | Plant response rating, Surinam Grass ([1]; 62 g ai/ha, scale 0 to 100) | Plant response rating (0 = no effect, 100 = complete control), Surinam Grass [1] | Plant response rating, Surinam Grass [1, 11] | Plant response rating, Soybean ([2]; 62 g ai/ha, scale 0 to 100) | Plant response rating (0 = no effect, 100 = complete control), Soybean [2] | Plant response rating, Soybean [2, 11] | Plant response rating, Pigweed ([3]; 62 g ai/ha, scale 0 to 100) | Plant response rating (0 = no effect, 100 = complete control), Pigweed [3] | Plant response rating, Pigweed [3, 11] | Plant response rating, Velvetleaf ([4]; 62 g ai/ha, scale 0 to 100) | Plant response rating (0 = no effect, 100 = complete control), Velvetleaf [4] | Plant response rating, Velvetleaf [4, 11] | Plant response rating, Nutsedge, Yellow ([5]; 62 g ai/ha, scale 0 to 100) | Plant response rating (0 = no effect, 100 = complete control), Nutsedge, Yellow [5] | Plant response rating, Nutsedge, Yellow [5, 11] | Plant response rating, Corn ([6]; 62 g ai/ha, scale 0 to 100) | Plant response rating (0 = no effect, 100 = complete control), Corn [6] | Plant response rating, Corn ([6]; 250 g ai/ha, scale 0-100) | Plant response rating, Corn [6, 11] | Plant response rating, Crabgrass, Large ([7]; 62 g ai/ha, scale 0 to 100) | other results |
| --- | --- | --- | --- | --- | --- | --- | --- | --- | --- | --- | --- | --- | --- | --- | --- | --- | --- | --- | --- | --- | --- |
| Cc1nn(C(C)(C)C)nc1C(=O)Nc1cccc(C(=O)N(C)C)c1 [Compound 391] | 85 | 95 | 95 | 95 | 95 | 100 | 95 | 100 | 100 | 100 | 100 | 100 | 5 | 70 | 90 | 80 | 80 | 85 | 85 | 98 | Plant response rating, Surinam Grass ([1]; 250 g ai/ha, scale 0-100): 95; Plant response rating, Soybean ([2]; 250 g ai/ha, scale 0-100): 100; Plant response rating, Pigweed ([3]; 250 g ai/ha, scale 0-100): 100; Plant response rating, Velvetleaf ([4]; 250 g ai/ha, scale 0-100): 100; Plant response rating, Nutsedge, Yellow ([5]; 250 g ai/ha, scale 0-100): 90; Plant response rating (0 = no effect, 100 = complete control), Crabgrass, Large [7]: 100; Plant response rating, Crabgrass, Large ([7]; 250 g ai/ha, scale 0-100): 100; Plant response rating, Crabgrass, Large [7, 11]: 100; Oat, Wild plant response rating [8, 12]: 0; Oat, Wild plant response rating [8, 13]: 20; Plant response rating (0 to 100 scale), Corn ([9]; 125 g ai/ha): 90; Corn plant response rating [9, 12]: 10; Corn plant response rating [9, 13]: 30; Plant response rating, Johnsongrass ([10]; 62 g ai/ha, scale 0 to 100): 100; Plant response rating (0 = no effect, 100 = complete control), Johnsongrass [10]: 100; Plant response rating, Johnsongrass ([10]; 250 g ai/ha, scale 0-100): 100; Plant response rating, Johnsongrass [10, 11]: 100 |
| CCNC(=O)c1ccc(F)c(N(C(C)=O)C(=O)c2cc(C(C)(C)C)nn2CC)c1 [Compound 399] | 95 | 95 | 100 | 75 | 85 | 100 | 100 | 100 | 100 | 95 | 100 | 100 | 45 | 75 | 95 | 60 | 70 | 80 | 95 | 100 | Plant response rating (0 = no effect, 100 = complete control), Crabgrass, Large [7]: 100; Plant response rating, Crabgrass, Large ([7]; 250 g ai/ha, scale 0-100): 100; Plant response rating, Crabgrass, Large [7, 11]: 100; Oat, Wild plant response rating [8, 12]: 20; Oat, Wild plant response rating [8, 13]: 40; Plant response rating (0 to 100 scale), Corn ([9]; 125 g ai/ha): 90; Corn plant response rating [9, 12]: 10; Corn plant response rating [9, 13]: 40; Plant response rating, Johnsongrass ([10]; 62 g ai/ha, scale 0 to 100): 95; Plant response rating (0 = no effect, 100 = complete control), Johnsongrass [10]: 100; Plant response rating, Johnsongrass ([10]; 250 g ai/ha, scale 0-100): 100; Plant response rating, Johnsongrass [10, 11]: 100 |
| CCc1nn(C(C)(C)C)nc1C(=O)Nc1cccc(C(=O)NC2CC2)c1 [Compound 417] | 0 | 75 | 95 | 0 | 0 | 40 | 100 | 100 | 100 | 75 | 100 | 100 | 0 | 0 | 0 | 0 | 0 | 10 | 65 | 100 | Plant response rating (0 = no effect, 100 = complete control), Crabgrass, Large [7]: 100; Plant response rating, Crabgrass, Large ([7]; 250 g ai/ha, scale 0-100): 100; Plant response rating, Crabgrass, Large [7, 11]: 100; Oat, Wild plant response rating [8, 13]: 40; Oat, Wild plant response rating [8, 14]: 10; Plant response rating (0 to 100 scale), Corn ([9]; 125 g ai/ha): 40; Corn plant response rating [9, 13]: 30; Corn plant response rating [9, 14]: 10; Plant response rating, Johnsongrass ([10]; 62 g ai/ha, scale 0 to 100): 100; Plant response rating (0 = no effect, 100 = complete control), Johnsongrass [10]: 100; Plant response rating, Johnsongrass ([10]; 250 g ai/ha, scale 0-100): 100; Plant response rating, Johnsongrass [10, 11]: 100 |
| CCN(CC)C(=O)c1cccc(NC(=O)c2nn(C(C)(C)C)nc2C)c1 [Compound 418] | 50 | 85 | 100 | 0 | 20 | 90 | 100 | 100 | 100 | 90 | 95 | 100 | 0 | 0 | 0 | 0 | 10 | 40 | 80 | 95 | Plant response rating (0 = no effect, 100 = complete control), Crabgrass, Large [7]: 100; Plant response rating, Crabgrass, Large ([7]; 250 g ai/ha, scale 0-100): 100; Plant response rating, Crabgrass, Large [7, 11]: 100; Oat, Wild plant response rating [8, 13]: 10; Oat, Wild plant response rating [8, 14]: 0; Plant response rating (0 to 100 scale), Corn ([9]; 125 g ai/ha): 10; Corn plant response rating [9, 13]: 20; Corn plant response rating [9, 14]: 20; Plant response rating, Johnsongrass ([10]; 62 g ai/ha, scale 0 to 100): 95; Plant response rating (0 = no effect, 100 = complete control), Johnsongrass [10]: 95; Plant response rating, Johnsongrass ([10]; 250 g ai/ha, scale 0-100): 95; Plant response rating, Johnsongrass [10, 11]: 95 |
